Source: patent publication US9795692B2, “Ocular detection of amyloid proteins” (SYSTEM OF SYSTEMS ANALYTICS, INC., priority 2011, dated 2017)

Experiments:
Format in all cases: binding
[1] = target: T1, non-Congophilic amyloid protein aggregates in human brain tissue (Homo sapiens, UniProt P05067); assay: Staining of human hippocampal region and cerebral cortex compared with Congo Red
T1 construct: from tissue; host or cells: human post-mortem brain tissue (neocortex, hippocampus, cerebral cortex)

[2] = system: amyloid protein aggregates in brain tissue of transgenic mice with Alzheimer's Disease (Tg AD); assay: Staining of murine brain tissue with FITC-labeled probe; settings: age-matched non-Tg murine brain; dentate gyrus or midbrain
Protocol: Probes for detecting amyloid protein aggregates in brain tissue of transgenic mice with Alzheimer's Disease (Tg AD) were prepared in accordance with the methods described herein.

[3] = system: amyloid aggregates in human eyes (optic nerve, ciliary retina, retina, drusen); assay: Staining of sectioned human donor eyes
Excerpt: Human eyes from donors with and without Alzheimer's Disease were obtained from the Georgia Eye Bank.

[4] = patient (3), 11-1755/6, person, Alzheimer's Disease and dementia
[5] = patient (4), 11-1767-8, person, Alzheimer's Disease

T1 sequence (P05067 672-713 limits assumed): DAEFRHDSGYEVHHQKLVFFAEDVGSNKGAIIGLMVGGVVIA

| Compound | structures stained in the cerebral cortex ([1]; cerebral cortex of patients with Alzheimer's Disease) | staining of morphological structures within the brain parenchyma ([1]; human brain parenchyma) | structures stained in the hippocampal region ([1]; human brain tissue, hippocampal region) | staining of non-Tg control brain tissue [2] | binding to amyloid aggregates in the optic nerve, intensity ([3]; human eye sections, optic nerve, PEP-11 compared with BC750) | staining of the retina, intensity and homogeneity ([3]; human eye sections, retina) | retinal staining: distinguishing Alzheimer's Disease from non-Alzheimer's Disease tissue ([3]; human eye sections, retina, AD vs non-AD eyes) | binding in optic nerve and ciliary retina ([3]; human eye sections, optic nerve immediately posterior to lamina cribrosa, ciliary retina) | manner of optic nerve staining ([3]; optic nerve of Alzheimer's Disease patients) | ciliary retina background staining [3, 4] | optic nerve staining [3, 4] | ciliary retina background staining [3, 5] | optic nerve staining [3, 5] | staining of drusen ([3]; patient eyes, generally) |
| --- | --- | --- | --- | --- | --- | --- | --- | --- | --- | --- | --- | --- | --- | --- |
| Nc1c(/N=N/c2ccc(-c3ccc(/N=N/c4cc(S(=O)(=O)O)c5ccccc5c4N)cc3)cc2)cc(S(=O)(=O)O)c2ccccc12 [Congo Red] | stained congophilic neuro-fibrillary tangles | Neither Congo Red nor PEP-11 stained any morphological structure | stained amyloid plaques at the center of the plaques |  |  |  |  |  |  |  |  |  |  |  |
| PEP-11: WT17-35 with FITC and d-Arginine at C-Terminal (CLVFFAEDVGSNKGAIIGLMC; FITC label, C-terminal D-arginine; /note=“Description of Artificial Sequence Synthetic probe”) |  |  |  | minimally stained | significantly greater | ubiquitous background staining of retinal tissue | less intensely in non-Alzheimer's Disease eyes as compared to Alzheimer's Disease eyes | bound to amyloid aggregates | dose gradient manner | moderate and homogenous | moderate | moderate and homogenous | intense | appears to stain drusen |
